The values below are quoted from earlier work in patent US11317628B2, “Microparticle compositions comprising saflufenacil” (BASF Agro B.V., priority 2015, dated 2022).

Each structure is given as a SMILES string.

For this data set the following is noted: background statement.

In the case of `CC(C)N(C)S(=O)(=O)NC(=O)c1cc(-n2c(=O)cc(C(F)(F)F)n(C)c2=O)c(F)cc1Cl` [Saflufenacil, 2-chloro-5-[3,6-dihydro-3-methyl-2,6-dioxo-4-(trifluoromethyl)-1-(2H)pyrimidinyl]-4-fluoro-N-[[methyl(1-methylethyl)amino]sulfonyl]benzamide], the Solubility in water entry is reported as “only sparingly soluble in water”.
